Laboratory results as given in ChEMBL document CHEMBL3784982, “Novel dihydropyrazole-chromen: Design and modulates hTERT inhibition proliferation of MGC-803” (Eur J Med Chem, 2016).
Each block holds one compound with its values, some of them ahead of it. The source made the active and inactive calls. No cut-off for these calls is given here.

Key:
[1] = target: Telomerase reverse transcriptase (Homo sapiens) (UniProt O14746); assay: Inhibition of human TERT-regulated Wnt/beta-catenin signalling in human MGC803 cells assessed as decrease in beta-catenin protein expression at […] after 48 hrs by Western blotting method; format: cell-based; conditions: MGC-803
[2] = Inhibition of human TERT mRNA expression in human MGC803 cells at […] after 48 hrs by RT-PCR method; format: functional, cell-based; conditions: MGC-803
[3] = target: Telomerase reverse transcriptase (Homo sapiens) (UniProt O14746); assay: Inhibition of human TERT-regulated Wnt/beta-catenin signalling in human MGC803 cells assessed as decrease in c-myc protein expression at […] after 48 hrs by Western blotting method; format: cell-based; conditions: MGC-803
[4] = target: Telomerase reverse transcriptase (Homo sapiens) (UniProt O14746); assay: Inhibition of human TERT-regulated Wnt/beta-catenin signalling in human MGC803 cells assessed as decrease in cyclin-D1 mRNA expression at […] after 48 hrs by RT-PCR method; format: cell-based; conditions: MGC-803
[5] = target: Telomerase reverse transcriptase (Homo sapiens) (UniProt O14746); assay: Inhibition of human TERT-regulated Wnt/beta-catenin signalling in human MGC803 cells assessed as decrease in cyclin D1 protein expression at […] after 48 hrs by Western blotting method; format: cell-based; conditions: MGC-803
[6] = target: Telomerase reverse transcriptase (Homo sapiens) (UniProt O14746); assay: Inhibition of human TERT-regulated Wnt/beta-catenin signalling in human MGC803 cells assessed as decrease in beta-catenin mRNA expression at […] after 48 hrs by RT-PCR method; format: cell-based; conditions: MGC-803
[7] = target: Telomerase reverse transcriptase (Homo sapiens) (UniProt O14746); assay: Inhibition of human TERT protein expression in human MGC803 cells at […] after 48 hrs by Western blotting method; format: cell-based; conditions: MGC-803
[8] = target: Telomerase reverse transcriptase (Homo sapiens) (UniProt O14746); assay: Inhibition of human TERT-regulated Wnt/beta-catenin signalling in human MGC803 cells assessed as decrease in c-myc mRNA expression at […] after 48 hrs by RT-PCR method; format: cell-based; conditions: MGC-803
[9] = Antiproliferative activity against human SGC7901 cells after 48 hrs by MTT assay; format: functional, cell-based; conditions: SGC-7901, 48 h
[10] = Antiproliferative activity against human MGC803 cells after 48 hrs by MTT assay; format: functional, cell-based; conditions: MGC-803, 48 h
[11] = Antiproliferative activity against human PC3 cells after 48 hrs by MTT assay; format: functional, cell-based; conditions: PC-3, 48 h
[12] = test system: Bcap37; assay: Antiproliferative activity against human Bcap37 cells after 48 hrs by MTT assay; format: functional, cell-based; conditions: Bcap37, 48 h
[13] = target: Telomerase reverse transcriptase (Homo sapiens) (UniProt O14746); assay: Inhibition of human TERT-regulated Wnt/beta-catenin signalling in human MGC803 cells assessed as downregulation of cyclin D1 protein expression after 48 hrs by Western blotting method; format: cell-based; conditions: MGC-803
[14] = target: Telomerase reverse transcriptase (Homo sapiens) (UniProt O14746); assay: Inhibition of human TERT expressed in human MGC803 cells assessed as TERT-regulated Wnt/beta-catenin signalling by measuring decrease in beta-catenin protein expression after 48 hrs by Western blotting method; format: cell-based; conditions: MGC-803
[15] = Cytotoxicity against human GES-1 cells after 48 hrs by MTT assay; format: cell-based; conditions: GES1, 48 h
[16] = target: Telomerase reverse transcriptase (Homo sapiens) (UniProt O14746); assay: Inhibition of human TERT expressed in human MGC803 cells assessed as TERT-regulated Wnt/beta-catenin signalling by measuring decrease in c-myc protein expression after 48 hrs by Western blotting method; format: cell-based; conditions: MGC-803
[17] = target: Telomerase reverse transcriptase (Homo sapiens) (UniProt O14746); assay: Inhibition of human TERT-regulated Wnt/beta-catenin signalling in human MGC803 cells assessed as downregulation of beta-catenin protein expression after 48 hrs by Western blotting method; format: cell-based; conditions: MGC-803
[18] = target: Telomerase reverse transcriptase (Homo sapiens) (UniProt O14746); assay: Inhibition of human TERT expressed in human MGC803 cells assessed as TERT-regulated Wnt/beta-catenin signalling by measuring decrease in cyclin D1 mRNA expression after 48 hrs by RT-PCR method; format: cell-based; conditions: MGC-803
[19] = test system: MGC-803; assay: Induction of cell cycle arrest in human MGC803 cells assessed as accumulation at G0/G1 phase at 1 uM after 48 hrs by propidium iodide staining-based flow cytometry (reference value: 32.7%); format: functional
[20] = target: Telomerase reverse transcriptase (Homo sapiens) (UniProt O14746); assay: Inhibition of human TERT expressed in human MGC803 cells assessed as TERT-regulated Wnt/beta-catenin signalling by measuring decrease in cyclin D1 protein expression after 48 hrs by Western blotting method; format: cell-based; conditions: MGC-803
[21] = target: Telomerase reverse transcriptase (Homo sapiens) (UniProt O14746); assay: Inhibition of human TERT protein expression in human MGC803 cells at 1 uM after 48 hrs by Western blotting method; format: cell-based; conditions: MGC-803
[22] = target: Telomerase reverse transcriptase (Homo sapiens) (UniProt O14746); assay: Inhibition of human TERT-regulated Wnt/beta-catenin signalling in human MGC803 cells assessed as downregulation of c-myc protein expression after 48 hrs by Western blotting method; format: cell-based; conditions: MGC-803
[23] = target: Telomerase reverse transcriptase (Homo sapiens) (UniProt O14746); assay: Inhibition of human TERT-regulated Wnt/beta-catenin signalling in human MGC803 cells assessed as downregulation of beta-catenin mRNA expression by RT-PCR method; format: cell-based; conditions: MGC-803
[24] = target: Telomerase reverse transcriptase (Homo sapiens) (UniProt O14746); assay: Inhibition of human TERT-regulated Wnt/beta-catenin signalling in human MGC803 cells assessed as downregulation of c-myc mRNA expression by RT-PCR method; format: cell-based; conditions: MGC-803
[25] = target: Telomerase reverse transcriptase (Homo sapiens) (UniProt O14746); assay: Inhibition of human TERT expressed in human MGC803 cells assessed as TERT-regulated Wnt/beta-catenin signalling by measuring decrease in beta-catenin mRNA expression after 48 hrs by RT-PCR method; format: cell-based; conditions: MGC-803
[26] = target: Telomerase reverse transcriptase (Homo sapiens) (UniProt O14746); assay: Inhibition of human TERT expressed in human MGC803 cells assessed as TERT-regulated Wnt/beta-catenin signalling by measuring decrease in c-myc mRNA expression after 48 hrs by RT-PCR method; format: cell-based; conditions: MGC-803
[27] = Cytotoxicity against human L02 cells after 48 hrs by MTT assay; format: cell-based; conditions: L02, 48 h
[28] = target: Telomerase reverse transcriptase (Homo sapiens) (UniProt O14746); assay: Inhibition of human TERT-regulated Wnt/beta-catenin signalling in human MGC803 cells assessed as downregulation of cyclin D1 mRNA expression by RT-PCR method; format: cell-based; conditions: MGC-803
[29] = target: Telomerase reverse transcriptase (Homo sapiens) (UniProt O14746); assay: Inhibition of human TERT-regulated Wnt/beta-catenin signalling in human MGC803 cells assessed as decrease in c-myc protein expression at 40 umol/L measured at 48 hrs by Western blotting method; format: cell-based; conditions: MGC-803
[30] = target: Telomerase reverse transcriptase (Homo sapiens) (UniProt O14746); assay: Inhibition of human TERT-regulated Wnt/beta-catenin signalling in human MGC803 cells assessed as decrease in c-myc mRNA expression at 40 umol/L measured at 48 hrs by RT-PCR method; format: cell-based; conditions: MGC-803
[31] = target: Telomerase reverse transcriptase (Homo sapiens) (UniProt O14746); assay: Inhibition of human TERT-regulated Wnt/beta-catenin signalling in human MGC803 cells assessed as decrease in cyclin D1 protein expression at 40 umol/L measured at 48 hrs by Western blotting method; format: cell-based; conditions: MGC-803
[32] = target: Telomerase reverse transcriptase (Homo sapiens) (UniProt O14746); assay: Inhibition of human TERT-regulated Wnt/beta-catenin signalling in human MGC803 cells assessed as decrease in beta-catenin protein expression at 40 umol/L measured at 48 hrs by Western blotting method; format: cell-based; conditions: MGC-803
[33] = target: Telomerase reverse transcriptase (Homo sapiens) (UniProt O14746); assay: Inhibition of human TERT-regulated Wnt/beta-catenin signalling in human MGC803 cells assessed as decrease in beta-catenin mRNA expression at 40 umol/L measured at 48 hrs by RT-PCR method; format: cell-based; conditions: MGC-803
[34] = target: Telomerase reverse transcriptase (Homo sapiens) (UniProt O14746); assay: Inhibition of human TERT-regulated Wnt/beta-catenin signalling in human MGC803 cells assessed as decrease in cyclin D1 mRNA expression at 40 umol/L measured at 48 hrs by RT-PCR method; format: cell-based; conditions: MGC-803
[35] = target: Telomerase reverse transcriptase (Homo sapiens) (UniProt O14746); assay: Inhibition of human TERT protein expression in human MGC803 cells at 40 umol/L measured at 48 hrs by Western blotting method; format: cell-based; conditions: MGC-803
[36] = Inhibition of human TERT mRNA expression in human MGC803 cells at 40 umol/L measured at 48 hrs by RT-PCR method; format: functional, cell-based; conditions: MGC-803

Chain of Telomerase reverse transcriptase (Homo sapiens) (O14746 whole entry): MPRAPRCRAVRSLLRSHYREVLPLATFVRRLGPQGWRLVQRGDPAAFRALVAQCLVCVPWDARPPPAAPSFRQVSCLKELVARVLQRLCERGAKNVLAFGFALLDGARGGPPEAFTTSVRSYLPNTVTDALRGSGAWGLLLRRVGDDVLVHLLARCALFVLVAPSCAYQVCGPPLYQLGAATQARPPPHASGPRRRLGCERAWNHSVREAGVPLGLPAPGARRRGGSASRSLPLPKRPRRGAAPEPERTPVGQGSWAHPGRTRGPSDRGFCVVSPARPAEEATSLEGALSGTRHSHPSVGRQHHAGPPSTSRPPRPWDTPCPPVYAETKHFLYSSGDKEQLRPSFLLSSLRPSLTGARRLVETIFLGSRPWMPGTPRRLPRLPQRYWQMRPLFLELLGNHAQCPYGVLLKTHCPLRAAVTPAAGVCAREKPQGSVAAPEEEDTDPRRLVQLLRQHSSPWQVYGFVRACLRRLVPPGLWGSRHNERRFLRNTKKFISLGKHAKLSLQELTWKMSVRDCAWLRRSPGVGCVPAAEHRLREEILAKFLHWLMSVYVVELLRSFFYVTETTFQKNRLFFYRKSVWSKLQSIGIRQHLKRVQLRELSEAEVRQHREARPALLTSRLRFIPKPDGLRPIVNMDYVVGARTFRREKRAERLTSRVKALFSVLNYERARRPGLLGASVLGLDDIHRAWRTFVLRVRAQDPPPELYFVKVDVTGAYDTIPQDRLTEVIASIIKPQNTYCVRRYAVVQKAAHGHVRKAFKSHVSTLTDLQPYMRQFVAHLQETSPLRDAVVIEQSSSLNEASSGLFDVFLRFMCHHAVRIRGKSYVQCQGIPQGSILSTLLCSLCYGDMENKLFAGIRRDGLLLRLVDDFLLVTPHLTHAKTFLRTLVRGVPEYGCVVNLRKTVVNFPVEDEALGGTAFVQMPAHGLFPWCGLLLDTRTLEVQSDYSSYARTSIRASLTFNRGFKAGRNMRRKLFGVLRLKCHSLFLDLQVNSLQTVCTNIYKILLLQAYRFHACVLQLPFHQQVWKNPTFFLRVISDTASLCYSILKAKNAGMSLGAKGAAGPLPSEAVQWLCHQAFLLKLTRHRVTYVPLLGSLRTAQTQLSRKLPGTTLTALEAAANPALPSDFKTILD

inhibition [1]: Active
inhibition [3]: Active
inhibition [4]: Active
inhibition [5]: Active
inhibition [6]: Active
inhibition [7]: Active
inhibition [8]: Active
SMILES: Cc1cn([C@H]2C[C@H](N=[N+]=[N-])[C@@H](CO)O2)c(=O)[nH]c1=O
inhibition [2]: Active

SMILES: COc1cccc2c1C(=O)c1c(O)c3c(c(O)c1C2=O)C[C@@](O)(C(=O)CO)C[C@@H]3O[C@H]1C[C@H](N)[C@H](O)[C@H](C)O1 [DOXORUBICIN]
IC50 [9]: 0.8 µM
IC50 [10]: 1.01 µM
IC50 [11]: 1.49 µM
IC50 [12]: 1.19 µM

inhibition [13]: Active
inhibition [14]: Active
inhibition [16]: Active
inhibition [17]: Active
inhibition [18]: Active
inhibition [20]: Active
inhibition [21]: Active
inhibition [22]: Active
inhibition [23]: Active
inhibition [24]: Active
inhibition [25]: Active
inhibition [26]: Active
inhibition [28]: Active
SMILES: O=C(CN1CCCCC1)N1N=C(c2ccccc2)CC1c1cc2ccccc2oc1=O (stereo not given)
IC50 [9]: 0.46 µM
IC50 [10]: 1.41 µM
IC50 [15]: 2300 µM
IC50 [11]: 4.12 µM
Activity [19]: 50.6%
IC50 [12]: 5.3 µM
IC50 [27]: 2500 µM

inhibition [29]: Active
inhibition [30]: Active
inhibition [31]: Active
inhibition [32]: Active
inhibition [33]: Active
inhibition [34]: Active
inhibition [35]: Active
SMILES: CCc1ccc(-c2nc(CSCC(=O)NCCc3ccccc3)c(C)o2)cc1
inhibition [36]: Active
